The test system of experiment [1] is hGH with para-acetylphenylalanine substituted for tyrosine at position 35 (hGH-pAcF), oxime formation with mono hydroxylamine 30 K PEG. Description: Screening of potential accelerants using 30 K PEG hGH-pAcF conjugation (SDS-PAGE). Details: species or system human. The following applies: 50 mM accelerant; hGH 8 mg/ml; hGH:PEG 1:2; 28° C.; 16 hours. The procedure:
Human growth hormone (hGH) with para-acetylphenylalanine substituted for tyrosine at position 35 was used to screen a panel of 20 compounds (FIG. 5). hGH was buffer exchanged into hGH reaction buffer (20 mM NaOAc, 20 mg/ml glycine, 5 mg/ml Mannitol, 1 mM EDTA, pH 4.0) using a PD 10 column, and concentrated to 10 mg/ml using a Centrocon (10 K MWCO) concentrator. hGH (10 μl) was mixed with 3.6 μl mono hydroxylamine 30 K PEG (2.5 mM), 3 μl of potential accelerant solution (200 mM in hGH reaction buffer) and buffer to give a final volume of 30 μl. The molar ratio of hGH:PEG was 1:2. The reaction mixtures were incubated at 28° C. for 16 hours and 36 hours and analyzed by SDS-PAGE (FIG. 6). The last lane in each gel was a control reaction (no accelerant). Compounds 6, 7, 8, 10, and 20 were accelerants. Two compounds from the panel, compounds 7 and 20 (acetic hydrazide) (pictured in FIG. 5), were accelerants and were further evaluated under similar reaction conditions with a higher hGH protein concentration (8 mg/ml). Lane 1 was a reaction mixture with a hGH:PEG molar ratio of 1:2 and 50 mM of accelerant compound 7. Lane 2 was a reaction mixture with a hGH:PEG molar ratio of 1:2 and 50 mM of accelerant compound 20. Lane 3 was a reaction mixture with a hGH:PEG molar ratio of 1:2 with no accelerant. Lane 4 was a reaction mixture with a hGH:PEG molar ratio of 1:5 with no accelerant.

Experiment [2] deals with scFv 108 259-pAcF. Description: Mono hydroxylamine 30 K PEG and scFv-pAcF conjugation (SDS-PAGE). The following applies: 28° C. As to the method: scFv 108 259-pAcF 0.5 mM stock solution in reaction buffer mentioned above (10 μl) is mixed with various amounts of mono hydroxylamine 30 K PEG 2.5 mM stock solution, 2.2 μl of 200 mM acetic hydrazide stock solution and reaction buffer. The reaction mixtures with a final reaction volume of 22 μl have different molar ratios of scFv:PEG (1:3 or 1:5). The accelerating effect of acetic hydrazide on conjugation of mono hydroxylamine 30 K PEG and scFv was evaluated at protein and PEG molar ratio of 1:3 and 1:5 with and without accelerant. The reaction mixtures were incubated at 28° C. and were analyzed at different time points (20 hours, 44 hours) by SDS-PAGE (FIG. 3). Lanes 1, 2, and 3 show 100%, 20%, and 10% of the starting scFv-pAcF, respectively. Lane 4 of the 20 hour and 44 hour gels show reaction mixtures with a scFv:PEG molar ratio of 1:3 with 20 mM acetic hydrazide. Lane 5 of the 20 hour and 44 hour gels show reaction mixtures with a scFv:PEG molar ratio of 1:3 without accelerant. Lane 6 of the 20 hour and 44 hour gels show reaction mixtures with a scFv:PEG molar ratio of 1:5 with 20 mM acetic hydrazide. […]
Similarly, the relative conjugation efficiency of different concentrations of the accelerant acetic hydrazide (5 mM, 20 mM, 80 mM) with a scFv:30 K PEG mono hydroxylamine molar ratio of 1:2 were evaluated (FIG. 4). […]

In experiment [3] the target is wild type hGH (Homo sapiens, UniProt P01241). Description: LCMS analysis of hGH after incubation with accelerant. The conditions noted are these: wild type hGH 5.8 mg/ml; up to 200 mM accelerant; 28° C.; 48 hour. The procedure:
In hGH reaction buffer, wild type hGH (5.8 mg/ml) was incubated with various concentrations of the accelerant acetic hydrazide (200 mM, 100 mM, 50 mM, 25 mM, 12.5 mM, 6.25 mM and 0 mM) at 28° C. for 48 hours. The accelerant was removed through dialysis (10 k MWCO). The resulting protein solutions were analyzed by LCMS (FIG. 8).]
The measured molecular weights of hGH in all the conditions are same and match theoretical value 22256.

For experiment [4], the system named is scFv 108 259-pAcF. The experiment can be described thus: One step dimerization of scFv-pAcF with homobifunctional 2 K hydroxylamine PEG linker (SDS-PAGE). The following applies: 47 mM acetic hydrazide; 147 μM homobifunctional 2 K PEG linker; pH 4.0; 28° C.; without accelerant very little dimer after 20 hours. The procedure: Single chain Fv (scFv) 108 protein with para-acetylphenylalanine substituted at position 259 (scFv 108 259-pAcF) was used the following conjugation experiment. scFv 108 259-pAcF in storage buffer was buffer exchanged into reaction buffer (150 mM NaCl, 20 mM NaOAc, 5 mM EDTA, pH 4.0) using a PD 10 column. The protein solution was concentrated to 0.5 mM, mixed with hydroxylamine homobifunctional 2 K PEG linker 2.5 mM stock solution and supplemented with acetic hydrazide as accelerant. The final reaction mixture consisted of 147 μM homobifunctional 2 K PEG linker, the corresponding concentration of pAcF-substituted scFv and 47 mM acetic hydrazide. The reaction mixtures were incubated at 28° C. and analyzed at different time points (6 hours, 20 hours, 44 hours) by SDS-PAGE (FIG. 2).
To make the one-step reaction more efficient and more practical with the homobifunctional 2 K PEG linker, accelerants were used to facilitate the dimerization process. Without accelerant, very little dimer product could be detected after 20 hours by SDS-PAGE. Lane 4 of the 6 hour, 20 hour, and 44 hour gels show reaction mixtures with a scFv:PEG linker molar ratio of 2.0:1 without the accelerant acetic hydrazide. […] Lane 1 of the 6 hour, 20 hour, and 44 hour gels show reaction mixtures with a scFv:PEG linker molar ratio of 1.6:1 with acetic hydrazide. […]

Chain of wild type hGH (P01241 with tags, fused parts or gaps): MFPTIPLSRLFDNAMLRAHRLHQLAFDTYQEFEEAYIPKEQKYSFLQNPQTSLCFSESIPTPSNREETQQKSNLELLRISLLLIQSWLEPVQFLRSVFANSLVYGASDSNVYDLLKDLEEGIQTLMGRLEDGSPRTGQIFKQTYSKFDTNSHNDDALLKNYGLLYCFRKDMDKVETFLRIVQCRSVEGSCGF

`CC(=O)NN` [Compound 20, acetic hydrazide]: the “acceleration of hGH-pAcF / 30 K PEG conjugation at higher protein concentration” value in experiment [1] was “shown to catalyze the reaction”. Also, in experiment [2] (5 mM, 20 mM, 80 mM acetic hydrazide, scFv:PEG 1:2), the “relative conjugation efficiency at different accelerant concentrations” value is listed as “the higher concentration of accelerant, the faster the conjugation”. Moreover, in experiment [2] (20 mM acetic hydrazide, scFv:PEG 1:3 and 1:5, with and without accelerant, 20 hours, 44 hours), the “accelerating effect on conjugation of mono hydroxylamine 30 K PEG and scFv” value is given as “accelerates the conjugation reaction”. Moreover, the “covalent modification of protein by accelerant (LCMS)” value in experiment [3] is on record as “no covalent modification could be detected”. The dimer product formation result in experiment [4] is reported as “the dimer product appeared after 6 hours”.

Source of the values: US20080139794A1, “Accelerants for the modification of non-natural amino acids and non-natural amino acid polypeptides” (Ambrx, Inc., priority 2005, published 2008).
